In the NIST ThermoML archive (doi:10.1016/j.jct.2004.12.008):
Numbers after ± are expanded uncertainties.

Tests used:
[1] = 101 kPa, Liquid
[2] = refractive index (Na D-line) (dimensionless); details: 293.15 K; 101.33 kPa; Liquid; Standard Abbe refractometry
[3] = xn = mol fraction of the nth substance listed; details: 101 kPa, Liquid

Structure (SMILES) | mass density ([1]; 293.15 K) [kg/m3] | mass density ([1]; 303.15 K) [kg/m3] | mass density ([1]; 313.15 K) [kg/m3] | mass density ([1]; 323.15 K) [kg/m3] | mass density ([1]; 333.15 K) [kg/m3] | mass density ([1]; 343.15 K) [kg/m3] | refractive index [2] | mass density ([1]; 353.15 K) [kg/m3] | mass density ([3]; 293.15 K, x1 = 1) [kg/m3] | mass density ([3]; 303.15 K, x1 = 1) [kg/m3] | mass density ([3]; 313.15 K, x1 = 1) [kg/m3] | mass density ([3]; 323.15 K, x1 = 1) [kg/m3] | mass density ([3]; 333.15 K, x1 = 1) [kg/m3] | mass density ([3]; 343.15 K, x1 = 1) [kg/m3] | further results
c1ccccc1 [benzene] | 877.8 ± 1.6 | 867.99 ± 1.7 | 857.87 ± 1.8 | 847.4 ± 1.9 | 836.59 ± 2 | 825.42 ± 2.1 | 1.5009 ± 0.0007 | – | – | – | – | – | – | – | –
O=[N+]([O-])c1ccccc1 [nitrobenzene] | 1202.95 ± 2.3 | 1193.56 ± 2.2 | 1183.37 ± 2.1 | 1172.38 ± 2 | 1160.59 ± 1.9 | 1148 ± 1.9 | 1.55488 ± 0.00072 | 1134.61 ± 1.8 | – | – | – | – | – | – | –
CCc1ccccc1 [ethylbenzene] | 867.82 ± 14 | 858.6 ± 14 | 851.85 ± 15 | – | – | – | 1.4962 ± 0.0008 | – | – | – | – | – | – | – | –
O=[N+]([O-])c1ccccc1 [nitrobenzene] + C=Cc1ccccc1 | – | – | – | – | – | – | – | – | – | – | – | – | – | – | mass density ([3]; 293.15 K, x2 = 0): 1202.95 ± 2.3 kg/m3; mass density ([3]; 303.15 K, x2 = 0): 1193.56 ± 2.2 kg/m3; mass density ([3]; 313.15 K, x2 = 0): 1183.37 ± 2.1 kg/m3; mass density ([3]; 323.15 K, x2 = 0): 1172.38 ± 2 kg/m3; mass density ([3]; 333.15 K, x2 = 0): 1160.59 ± 1.9 kg/m3; mass density ([3]; 343.15 K, x2 = 0): 1148 ± 1.9 kg/m3; mass density ([3]; 353.15 K, x2 = 0): 1134.61 ± 1.8 kg/m3
c1ccccc1 [benzene] + O=[N+]([O-])c1ccccc1 | – | – | – | – | – | – | – | – | 877.8 ± 1.6 | 867.99 ± 1.7 | 857.87 ± 1.8 | 847.4 ± 1.9 | 836.59 ± 2 | 825.42 ± 2.1 | –
Cc1cccc(C)c1 [1,3-dimethylbenzene] | 864.2 ± 2.5 | 855.76 ± 2.6 | 847.11 ± 2.6 | 838.27 ± 2.7 | 829.22 ± 2.7 | 819.97 ± 2.8 | 1.49735 ± 0.00082 | 810.51 ± 2.9 | – | – | – | – | – | – | –
CCc1ccccc1 [ethylbenzene] + O=[N+]([O-])c1ccccc1 | – | – | – | – | – | – | – | – | 867.82 ± 14 | 858.6 ± 14 | 851.85 ± 15 | 847.58 ± 15 | 845.79 ± 15 | 846.48 ± 15 | –
Cc1ccccc1C [1,2-dimethylbenzene] | 878.6 ± 1.6 | 872.25 ± 1.7 | 859.67 ± 1.8 | 840.84 ± 1.9 | – | – | 1.50573 ± 0.00072 | – | – | – | – | – | – | – | –
Cc1ccccc1 [toluene] + O=[N+]([O-])c1ccccc1 | – | – | – | – | – | – | – | – | 866.75 ± 2.5 | 857.53 ± 2.6 | 848.25 ± 2.6 | 838.9 ± 2.7 | 829.5 ± 2.7 | 820.03 ± 2.8 | mass density ([3]; 353.15 K, x1 = 1): 810.5 ± 2.9 kg/m3
Cc1ccccc1C [1,2-dimethylbenzene] + O=[N+]([O-])c1ccccc1 | – | – | – | – | – | – | – | – | 878.6 ± 1.6 | 872.25 ± 1.7 | 859.67 ± 1.8 | 840.84 ± 1.9 | – | – | –
Cc1ccccc1 [toluene] | 866.75 ± 2.5 | 857.53 ± 2.6 | 848.25 ± 2.6 | 838.9 ± 2.7 | 829.5 ± 2.7 | 820.03 ± 2.8 | 1.4965 ± 0.0008 | 810.5 ± 2.9 | – | – | – | – | – | – | –
Cc1ccc(C)cc1 [1,4-dimethylbenzene] | 861 ± 1.9 | 852.28 ± 2 | 843.58 ± 2.1 | 834.92 ± 2.1 | 826.27 ± 2.2 | 817.66 ± 2.3 | 1.49577 ± 0.00075 | 809.07 ± 2.4 | – | – | – | – | – | – | –
Cc1ccc(C)cc1 [1,4-dimethylbenzene] + O=[N+]([O-])c1ccccc1 | – | – | – | – | – | – | – | – | 861 ± 1.9 | 852.28 ± 2 | 843.58 ± 2.1 | 834.92 ± 2.1 | 826.27 ± 2.2 | 817.66 ± 2.3 | mass density ([3]; 353.15 K, x1 = 1): 809.07 ± 2.4 kg/m3
Cc1cccc(C)c1 [1,3-dimethylbenzene] + O=[N+]([O-])c1ccccc1 | – | – | – | – | – | – | – | – | 864.2 ± 2.5 | 855.76 ± 2.6 | 847.11 ± 2.6 | 838.27 ± 2.7 | 829.22 ± 2.7 | 819.97 ± 2.8 | mass density ([3]; 353.15 K, x1 = 1): 810.51 ± 2.9 kg/m3
C=Cc1ccccc1 [styrene] | 906 ± 1.4 | 896.44 ± 1.5 | 886.88 ± 1.6 | 877.32 ± 1.6 | 867.76 ± 1.7 | 858.2 ± 1.8 | 1.546 ± 0.0007 | 848.64 ± 1.9 | – | – | – | – | – | – | –
